The values below come from paper PMC11666850, “Development and evaluation of deuterated [^18F]JHU94620 isotopologues for the non-invasive assessment of the cannabinoid type 2 receptor in brain” (EJNMMI Radiopharmacy and Chemistry, 2024).

The target of data set [1] is CB2R. The conditions noted are these: cited from earlier work.
A further data set deals with CB1R. As to conditions: cited from earlier work.
The next data set addresses T1, human CB2R (hCB2R) (Homo sapiens, UniProt P34972).
T1 construct: expressed in transfected cells; host or cells: CHO(hCB2R) cells, obtained from Paul L. Prather, University of Arkansas for Medical Sciences
Briefly: Homologous competition binding, CHO(hCB2R) cell membranes. The procedure:
For binding studies crude homogenates of CHO(hCB2R) cells (obtained from Paul L. Prather, Department of Pharmacology and Toxicology, College of Medicine, University of Arkansas for Medical Sciences, USA) were incubated with the reference compound (self-blocking) or the CB2R-specific partial agonist GW405833 (Tocris Bioscience, Bristol, UK) with indicated concentrations at room temperature for 90 min. The total volume of 1 mL of each sample consisted of 600 µL incubation buffer (50 mM Tris HCl pH7.4, 5 mM MgCl2, 1 mM EDTA and 1% Bovine Serum Albumin), 200 µL cell membrane homogenates, 100 µL competitor or binding buffer (total binding) and 100 µl of binding buffer with [^18F]JHU94620-d8 (about 100 kBq per vial, corresponding to 0.8 to 1.6 nM). Incubation was terminated by rapid filtration through a GF-B glass fibre filter, pre-treated with 0.5% PVP with 0.1% Tween 20 solution, using a 48-well cell harvester, washed six times with buffer and filter bound activity was subsequently measured in a γ-counter (1480 WIZARD, Perkin Elmer, Turku, Finland).
(§1) The KD values were calculated with GraphPad Prism according to the modified Cheng-Prusoff method for homologous competitive binding studies, where the KD = Ki = IC50—[radioligand] and the Bmax = specific binding / [radioligand] / ((KD + [radioligand])) (Motulsky and Neubig [2000]), assuming a total protein content of 8.2% (1.3 10^–4 µg protein per voxel) in the spleen (Zaia et al. [2000]) or by determining the protein concentration of the cell membrane lysates using a BCA assay (Thermo Scientific, Braunschweig, Germany). The fractional occupancy defined as occupied binding sites per total binding sites is used to describe the binding fraction specifically bound to CB2R compared to unspecific binding, where [L] is the concentration of the ligand at the start of incubation.

Data set [2] has as its target T2, CB2R (Rattus norvegicus, UniProt Q9QZN9).
T2 construct: from tissue; host or cells: rat spleen: cryosections in vitro, and spleen of living Wistar rats in PET
T2 sequence (Q9QZN9 1-360): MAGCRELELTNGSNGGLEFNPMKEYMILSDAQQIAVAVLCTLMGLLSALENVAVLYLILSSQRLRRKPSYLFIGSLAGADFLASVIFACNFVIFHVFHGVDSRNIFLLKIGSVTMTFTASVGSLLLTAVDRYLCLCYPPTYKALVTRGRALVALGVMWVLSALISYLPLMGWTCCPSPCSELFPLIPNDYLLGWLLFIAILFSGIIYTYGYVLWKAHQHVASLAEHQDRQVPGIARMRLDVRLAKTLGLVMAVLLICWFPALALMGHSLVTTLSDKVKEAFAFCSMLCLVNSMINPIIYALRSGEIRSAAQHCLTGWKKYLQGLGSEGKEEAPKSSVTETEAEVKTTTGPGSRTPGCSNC
Briefly: Quantitative autoradiography, rat spleen cryosections. Format: binding. As to conditions: 100 nM CB2R PAM, rat spleen. The procedure:
For quantitative autoradiography in different species, 10 µm cryosections from mouse, rat and piglet spleen were thawed, dried, and pre-incubated with incubation buffer for 10 min, dried under an airstream. Subsequently, the incubation buffer containing [^18F]JHU94620-d8 (59–137 GBq µmol^−1, 1.7–3.6 nM) was added alone or together with indicated concentrations of the reference compound. Additionally, to assess the non-specific binding of [^18F]JHU94620-d8 to cryosections GW405833 was added instead of the reference compound. After 90 min, cryosections were washed two times for 2 min with ice-cold 50 mM Tris HCl, pH7.4 and 10 s in ddH2O and subsequently dried under an airstream. For the calculation of the radioactivity concentration, 5 µl of five serial 1:2 dilutions of the incubation buffer with [^18F]JHU94620-d8 were air-dried on a microscopic slide. For binding studies in rat spleen cryosections by autoradiography with HLM-derived radiometabolites of [^18F]JHU94620-d8 obtained from the radiometabolite assay, the samples were added to the incubation buffer to a final activity concentration of 0.2 MBq mL^−1 and protocol was followed as described above. Subsequently, the slides were exposed to a phosphor imager plate. After scanning at high sensitivity and a 12.5 µm resolution with a CR35 Bio image plate scanner (Raytest Isotopenmessgeräte GmbH, Straubenhardt, Germany). The analyses of the autoradiographic images were performed with the AIDA 5.1 software (Elysia-Raytest, Angleur, Belgium) resulting in a resolution of 12.617 pixel × 12.616 pixel per µm^2 (1 voxel = 1592 µm^3 ≙ 1.59 10^–3 µg wet tissue) and inhibition curves were created with GraphPad Prism 9.5.1 (GraphPad Inc., La Jolla, CA).
as §1

For data set [3], the target named is T2, CB2R. The data set is classed as in vivo. The conditions noted are these: Wistar rats, i.v. pre-treatment 5 min prior tracer, between 2.5 and 20 min p.i., 1-way ANOVA p < 0.05. As to the method: The dynamic biodistribution of the radiotracer in the lower body of rats was assessed by small animal PET (Nanoscan, Mediso, Hungary) over 60 min with a subsequently T1-weighted MR. Anaesthetized (2% isoflurane, carrier gas mixture of 40% air and 60% O2) male Wistar rats (body weight: 205–308 g, age: 8–10 weeks, no gender-specific differences were taken into account) were kept during imaging on a heated animal bed to sustain body temperature and were pretreated with vehicle (DMSO:Kolliphore EL:0.9% saline, 1:2:7), JHU94620-d8 (1.5 mg kg^−1 bodyweight) or with GW405833 (5 mg kg^−1 bodyweight) 5 min prior tracer application ([^18F]JHU94620-d8: 7.7–28.2 MBq, 0.4 to 3.2 nmol kg^−1 bodyweight), whereby all injections were administered intravenously. For the evaluation of the hCB2R-specific binding of the radiotracer in the brain, female Wistar rats (n = 6, 253–269 g, age: 8 month) were used carrying stereotactically injected constructs of AAV2/7-CaMKII0.4-intron-hCB2R(D80N) in the right striatum and AAV2/7-CaMKII0.4-intron-3flag-eGFP in the control/contralateral striatum (Vandeputte et al. [2011]). 21–26 MBq corresponding to 0.2 to 2.0 nmol kg^−1 bodyweight radiotracer were injected, whereas in displacement studies 5 mg kg^−1 bodyweight GW405833 was administered 20 min after the radiotracer (each n = 3). The PET scans were performed six months after the stereotactic injections of the AAV2/7-constructs.
The acquisitions were performed in normal mode and a coincidence mode 1–5. For subsequent dynamic reconstructions list mode data were sorted into sinograms (12 × 10 s, 6 × 30 s, 5 × 60 s and 10 × 300 s). The frames were reconstructed by Ordered Subset Expectation Maximization applied to 3D (OSEM3D) sinograms corrected for decay and attenuation (4 iterations, 6 subsets and a voxel size of 0.4 mm^3) with the Nucline software v2.01 (Mediso, Budapest, Hungary). Analyses of reconstructed studies were performed with PMOD software (v4.205, PMOD Technologies LLC, Fällanden, Switzerland) and results are expressed in standardized uptake values (SUVs) or normalized to a reference region (SUVr).

A further data set deals with hCB2R(D80N) (Homo sapiens, UniProt P34972, D80N). Put plainly: Homologous displacement autoradiography, brain cryosections of rats with hCB2R(D80N) overexpression. Format: binding. As to conditions: hCB2R(D80N) region, 10 µm rat brain cryosections, homologous displacement, n = 3; read-out: KD.
Data set [4] has as its target T3, CB2R (Mus musculus, UniProt P47936).
T3 construct: from tissue; host or cells: mouse spleen cryosections
More on the design: method as in Govaerts et al. [2004]. As to conditions: mouse spleen; ref Govaerts et al. [2004]; cited from earlier work.

Data set [5] concerns the target T2, CB2R. Also noted: method as in Govaerts et al. [2004]. The conditions noted are these: rat spleen; ref Govaerts et al. [2004]; cited from earlier work.
Data set [6] in a line: Ex vivo radiometabolite analysis in CD-1 mice. As to conditions: CD-1, mouse, in vivo, 30 min. The procedure:
Female adult CD-1 mice (25–42 g body weight) were used for radiometabolite analysis of [^18F]JHU94620-d4 (n = 2, 33 and 34 MBq) and [^18F]JHU94620-d8 (n = 3, 26–33 MBq) at 30 min after intravenous tail vein injection of the radiotracer to allow for the comparison of radiometabolite analysis of [^18F]JHU94620 (Moldovan et al. [2016]). The mice were immobilized by short isoflurane narcosis for the injection of the radiotracer in a restrainer and awakened mice were kept in an isolated cage until euthanisation by cervical dislocation under isoflurane narcosis. Male Wistar rats (n = 12, 613–794 g) were used for radiometabolite analysis of [^18F]JHU94620-d8 at different time points (5, 15, 30 and 60 min p.i.) after intravenous tail vein injection of the radiotracer (37–74 MBq) for the correction of the input function in pharmacokinetic analysis. Rats were kept under isoflurane narcosis (gas mixture: 2.5% isoflurane and O2) on a warmed plate until euthanization by decapitation of deep narcotized animals. Plasma samples were obtained by centrifugation with 5500 g of blood samples for 2 min at 4 °C. Resected tissues brain and spleen were kept on ice and minced for 3 × 20 s with adding 0.5 to 1 mL of 0.9% NaCl using a Precellys lysing kit and Minilys homogenizer (Bertin Technologies SAS, Montigny-le-Bretonneux, France).
The samples were further processed for subsequent radio-chromatographic analyses. Two consecutive extractions were performed in duplicates for plasma and brain determinations. Plasma, brain and spleen samples were added to the four time the volume of an ice-cold MeOH/H2O mixture (9:1, v/v). The samples were vortexed for 3 min, incubated on ice for 5 min and centrifuged at 8,600 g for 5 min. Supernatants were collected and the precipitates were re-dissolved in 100 µL of extraction solvent and the extraction procedure was repeated. The activities of supernatants and precipitates were measured in a γ-counter (1480 WIZARD, Perkin Elmer), and the extraction efficiencies were calculated as the ratio of radioactivity in the supernatant to the radioactivity in the original sample (supernatant + precipitate). The supernatants from both extractions were combined, concentrated at 70 °C under argon stream up to a remaining volume of 100 µL, and subsequently analysed by analytical radio-HPLC (method A or B).

Another data set addresses hCB1R. More on the design: method as in Moldovan et al. [2016]. As to conditions: ref Moldovan et al. [2016]; cited from earlier work.
Another data set deals with hCB2R. More on the design: method as in Moldovan et al. [2016]. The conditions noted are these: ref Moldovan et al. [2016]; cited from earlier work.
For data set [7] the following is noted: pH 7.4; cited from earlier work.
The conditions of data set [8]: cited from earlier work.
The mark [9] stands for this setting: ref McPartland et al. [2007], Kosar et al. [2024].
Setting [10] is: ref Caillé et al. [2017], Auvity et al. [2024].

Where two headings read alike, the source gives them in different places.

T1 sequence (P34972 whole entry): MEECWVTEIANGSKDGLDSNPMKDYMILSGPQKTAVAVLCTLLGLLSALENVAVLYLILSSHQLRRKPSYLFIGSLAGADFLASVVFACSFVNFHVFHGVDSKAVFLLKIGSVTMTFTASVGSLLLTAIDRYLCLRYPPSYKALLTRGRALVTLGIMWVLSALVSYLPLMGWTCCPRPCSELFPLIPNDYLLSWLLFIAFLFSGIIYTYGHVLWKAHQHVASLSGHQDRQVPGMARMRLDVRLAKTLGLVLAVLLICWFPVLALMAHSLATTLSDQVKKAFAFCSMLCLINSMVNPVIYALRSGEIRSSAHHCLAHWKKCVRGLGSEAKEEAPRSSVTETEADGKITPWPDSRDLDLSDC
Sequence of hCB2R(D80N) (P34972 whole entry D80N): as the sequence (P34972 whole entry) above, with D80N counted along it
T3 sequence (P47936 whole entry): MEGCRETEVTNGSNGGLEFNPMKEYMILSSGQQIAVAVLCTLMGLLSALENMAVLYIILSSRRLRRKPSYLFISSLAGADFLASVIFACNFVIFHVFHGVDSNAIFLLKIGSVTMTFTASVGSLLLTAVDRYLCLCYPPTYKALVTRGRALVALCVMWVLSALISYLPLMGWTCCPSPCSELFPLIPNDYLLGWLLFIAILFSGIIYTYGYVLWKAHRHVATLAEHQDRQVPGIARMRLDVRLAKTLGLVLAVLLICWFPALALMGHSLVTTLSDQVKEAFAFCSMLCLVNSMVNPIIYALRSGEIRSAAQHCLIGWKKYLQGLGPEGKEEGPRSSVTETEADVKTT

The term Ki denotes the equilibrium dissociation constant of an inhibitor or competing ligand from its target. For the compound `CCCCC/C=C\C/C=C\C/C=C\C/C=C\CCCC(=O)OC(CO)CO` [2-AG, 2-arachydonilglycerol], the Ki on CB2R [1] (setting [9]) is 1190 nM.
For `CCCCC/C=C\C/C=C\C/C=C\C/C=C\CCCC(=O)NCCO` [AEA, anandamide], the Ki on CB1R (setting [9]) is 240 nM; on CB2R [1] (setting [9]), 440 nM.
With `Cc1c(Br)cn(Cc2ccc(F)cc2)c(=O)c1NC(=O)C1CCCCCC1` [CB2R PAM, reference compound], the “effect of co-incubation on the binding of [^18F]JHU94620-d8” value was “did not increase the binding” at human CB2R (hCB2R) (100 nM CB2R PAM, CHO(hCB2R) cell membranes) and “did not increase the binding” on CB2R [2]. Moreover, at human CB2R (hCB2R) (CB2R PAM binding assay, Figure S9 as cited), the “competition with [^18F]JHU94620-d8 binding” value is “weak competitive binding”.
Regarding `COc1ccc2c(c1)c(CCN1CCOCC1)c(C)n2C(=O)c1cccc(Cl)c1Cl` [GW405833, reference compound], the “blocking of [^18F]JHU94620-d8 uptake into the spleen” value at CB2R [3] is “significantly blocked”.
For orientation: Kd means the constant that tells how readily two partners part at equilibrium. With `[2H]C([2H])(F)C([2H])([2H])C([2H])([2H])C([2H])([2H])n1c(C)c(C)s/c1=N\C(=O)C1C(C)(C)C1(C)C` [JHU94620-d8, (Z)-N-(3-(4-Fluorobutyl-1,1,2,2,3,3,4,4-d8)-4,5-dimethylthiazol-2(3H)-ylidene)-2,2,3,3-tetramethylcyclopropane-1-carboxamide], the Kd on hCB2R(D80N) stood at 41.3 nM. Further, the “blocking of [^18F]JHU94620-d8 uptake into the spleen” value at CB2R [3] is given as “significantly blocked”.
For the compound `CCCCCCC(C)(C)c1ccc([C@@H]2C[C@H](O)CC[C@H]2CCCO)c(O)c1` [[^3H]CP55940], the Bmax on CB2R [4] is 0.31 ± 0.03 pmol mg^−1 protein; at CB2R [5], 0.71 ± 0.02 pmol mg^−1 protein.
For `Cc1s/c(=N\C(=O)C2C(C)(C)C2(C)C)n(CCOCC[18F])c1C` [[^18F]FC0324, (Z)-N-(3-(2-(2-[^18F]Fluoroethoxy)ethyl)-4,5-dimethylthiazol-2(3H)-ylidene)-2,2,3,3-tetramethylcyclopropane-1-carboxamide], the Ki on CB1R (setting [10]) is 30 nM; at CB2R [1] (setting [10]), 0.1 nM.
On to `Cc1s/c(=N\C(=O)C2C(C)(C)C2(C)C)n(CCCC[18F])c1C` [[^18F]JHU94620], for which the “percentage printed at the radiotracer peak of the representative radio-HPLC chromatogram (Mice)” value in data set [6] stood at 37%. Moreover, the figures for the Ki on hCB1R and on hCB2R were 380 nM and 0.4 nM, respectively. In data set [7], the LogD7.4 is reported as 3.2. In addition, in data set [8] (CD-1 mouse brain, 30 min p.i., ref Moldovan et al. [2016]), the “parent fraction in brain” value is recorded as 0.36. Moreover, in data set [8] (mouse, in vivo), the “parent fraction in plasma” value is 0.07.
For the compound Δ^9-trans-tetrahydrocannabinol [THC], the values for the Ki on CB1R (setting [9]) and on CB2R [1] (setting [9]) were 25 nM and 36 nM, respectively.
